Where “and” joins values, the source holds several entries; their conditions need not be identical. Equal entries are not always repeated.
These molecules were tested against T1, NAMPT (Homo sapiens, UniProt P43490) (assay: Biochemical inhibition assay: NAMPT enzymatic reaction, NMN quantified by mass spectrometry). Conditions: Biochem IC50 uM.
T1 construct: His tag; host or cells: E. coli
Description: Biochemical Inhibition Assay
NAMPT Protein Purification
Recombinant His-tagged NAMPT was produced in E. coli cells, purified over a Ni column, and further purified over a size-exclusion column by XTAL Biostructures.
The NAMPT Enzymatic Reaction
The NAMPT enzymatic reactions were carried out in Buffer A (50 mM Hepes pH 7.5, 50 mM NaCl, 5 mM MgCl2, and 1 mM THP) in 96-well V-bottom plates. The compound titrations were performed in a separate dilution plate by serially diluting the compounds in DMSO to make a 100× stock. […] The compound and enzyme mix was incubated for 15 minutes at room temperature, then 10 μL of 10× substrate and co-factors in Buffer A were added to the test well to make a final concentration of 1 μM NAM, 100 μM 5-Phospho-D-ribose 1-diphosphate (PRPP), and 2.5 mM Adenosine 5′-triphosphate (ATP). The reaction was allowed to proceed for 30 minutes at room temperature, then was quenched with the addition of 11 μL of a solution of formic acid and L-Cystathionine to make a final concentration of 1% formic acid and 10 μM L-Cystathionine. Background and signal strength was determined by addition (or non-addition) of a serial dilution of NMN to a pre-quenched enzyme and cofactor mix.
A mass spectrometry-based assay was used to measure the NAMPT reaction product (NMN) and the internal control (L-Cystathionine). NMN and L-Cystathionine were detected using the services of Biocius Lifesciences with the RapidFire system. In short, the NMN and L-Cystathionine are bound to a graphitic carbon cartridge in 0.1% formic acid, eluted in 30% acetonitrile buffer, and injected into a Sciex 4000 mass spectrometer. The components of the sample were ionized with electrospray ionization and the positive ions were detected. […] The fragments are quantified and the analyzed by the following method.
First the NMN signal is normalized to the L-Cystathionine signal by dividing the NMN signal by the L-Cystathionine signal for each well. The signal from the background wells are averaged and subtracted from the test plates. […] IC50s are Determined Using Excel and this Formula.

T1 sequence (P43490 whole entry): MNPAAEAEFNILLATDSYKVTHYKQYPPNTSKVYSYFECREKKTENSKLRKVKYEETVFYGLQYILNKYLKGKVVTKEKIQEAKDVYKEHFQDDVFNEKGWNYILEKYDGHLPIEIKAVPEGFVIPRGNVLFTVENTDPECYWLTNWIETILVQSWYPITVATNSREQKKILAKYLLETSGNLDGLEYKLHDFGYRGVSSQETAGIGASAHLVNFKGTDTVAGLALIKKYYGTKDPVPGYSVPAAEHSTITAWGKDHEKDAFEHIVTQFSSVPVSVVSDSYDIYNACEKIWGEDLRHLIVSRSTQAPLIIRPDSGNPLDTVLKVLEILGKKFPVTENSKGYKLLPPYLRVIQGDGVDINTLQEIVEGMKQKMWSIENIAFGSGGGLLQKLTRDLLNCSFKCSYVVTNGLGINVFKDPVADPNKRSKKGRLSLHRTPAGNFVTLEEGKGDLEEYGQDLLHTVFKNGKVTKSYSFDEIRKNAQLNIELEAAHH

| Molecule | IC50 [µM] |
| --- | --- |
| Cc1c(Cl)cccc1S(=O)(=O)c1ccc(CNC(=O)c2cc3ccncc3s2)cc1 | 0.0572 |

Same assay, conditions: NAMPT enzymatic assay; read-out: Biochem IC50

| Molecule | IC50 |
| --- | --- |
| O=C(NCc1ccc(S(=O)(=O)c2cccc3c2sc2ccccc23)cc1)c1cc2cnccc2[nH]1 | 0.0035 µM |
| Cc1nc(-c2cccc(S(=O)(=O)c3ccc(CNC(=O)c4cc5ccncc5o4)cc3)c2)no1 | 0.0079 µM |
| O=C(NC1CCCC1)c1cccc(S(=O)(=O)c2ccc(CNC(=O)c3cc4ccncc4o3)cc2)c1 | 0.0066 µM |
| CN(C)S(=O)(=O)c1cccc(S(=O)(=O)c2ccc(CNC(=O)c3cc4ccncc4o3)cc2)c1 | 0.002 µM |
| CCS(=O)(=O)c1cccc(S(=O)(=O)c2ccc(CNC(=O)c3cc4ccncc4o3)cc2)c1 | 0.0027 µM |
| O=C(NCc1ccc(S(=O)(=O)c2cccc(N3CCOCC3)c2)cc1)c1cc2ccncc2[nH]1 | 0.0207 µM and 0.0084 µM |
| CCCS(=O)(=O)Nc1cccc(S(=O)(=O)c2ccc(CNC(=O)c3cc4ccncc4s3)cc2)c1 | 0.0015 µM |
| O=C(NCc1ccc(S(=O)(=O)c2ccc(Cn3ccnc3)cc2)cc1)c1cc2ccncc2o1 | 0.019 µM |
| CC(C)Oc1ccc(S(=O)(=O)c2ccc(CNC(=O)c3cnc4nccn4c3)cc2)cc1 | 0.0043 µM |
| O=C(NCc1ccc(S(=O)(=O)c2ccc(F)c(C(F)(F)F)c2)cc1)c1cnc2nccn2c1 | 0.008 µM |
| Cc1ccc(F)cc1S(=O)(=O)c1ccc(CNC(=O)c2cnc3nccn3c2)cc1 | 0.0027 µM |
| O=C(NCc1ccc(S(=O)(=O)c2cc(C(F)(F)F)ccn2)cc1)c1ccc2nccn2c1 [N-({4-[4-(trifluoromethyl)pyridine-2-sulfonyl]phenyl}methyl)imidazo[1,2-a]pyridine-6-carboxamide] | 0.0197 µM |
| O=C(NCc1ccc(S(=O)(=O)c2ccc(F)c(OCC(F)(F)F)c2)cc1)c1cnc2[nH]ncc2c1 [N-[(4-{[4-fluoro-3-(2,2,2-trifluoroethoxy)benzene]sulfonyl}phenyl)methyl]-1H-pyrazolo[3,4-b]pyridine-5-carboxamide] | 0.01 µM |
| O=C(NCc1ccc(S(=O)(=O)c2cccc3c2OCC3)cc1)c1cnc2[nH]ncc2c1 [N-{[4-(2,3-dihydro-1-benzofuran-7-sulfonyl)phenyl]methyl}-1H-pyrazolo[3,4-b]pyridine-5-carboxamide] | 0.0248 µM |
| Cn1cc2ccc(S(=O)(=O)c3ccc(CNC(=O)c4cc5cnccc5[nH]4)cc3)cc2n1 [N-{[4-(2-methyl-2H-indazole-6-sulfonyl)phenyl]methyl}-1H-pyrrolo[3,2-c]pyridine-2-carboxamide] | 0.0025 µM |
| O=C(NCc1ccc(S(=O)(=O)c2cncc(Cl)c2)cc1)c1ccc2nccn2c1 [N-{[4-(5-chloropyridine-3-sulfonyl)phenyl]methyl}imidazo[1,2-a]pyridine-6-carboxamide] | 0.0244 µM |
| COc1cccc(S(=O)(=O)c2ccc(CNC(=O)c3cc4ccncc4o3)cc2)n1 [N-{[4-(6-methoxypyridine-2-sulfonyl)phenyl]methyl}furo[2,3-c]pyridine-2-carboxamide] | 0.0025 µM |
| O=C(NCc1ccc(S(=O)(=O)c2cncc3ccccc23)cc1)c1cnc2nccn2c1 [N-{[4-(isoquinoline-4-sulfonyl)phenyl]methyl}imidazo[1,2-a]pyrimidine-6-carboxamide] | 0.0016 µM |
| O=C(NCc1ccc(S(=O)(=O)c2cnc3ccccc3c2)cc1)c1cc2ccncc2o1 [N-{[4-(quinoline-3-sulfonyl)phenyl]methyl}furo[2,3-c]pyridine-2-carboxamide] | 0.0042 µM |

Same assay, conditions: NAMPT enzymatic reaction; read-out: Biochem IC50

| Molecule | IC50 [µM] |
| --- | --- |
| Cc1ccc(S(=O)(=O)c2ccc(CNC(=O)c3cnc4[nH]ncc4c3)cc2)cc1Cl | 0.0061 |
| CCCOc1ccc(S(=O)(=O)c2ccc(CNC(=O)c3cc4cnccc4[nH]3)cc2)cc1Cl | 0.074 |
| Cc1cc(F)cc(S(=O)(=O)c2ccc(CNC(=O)c3cc4ccncc4o3)cc2)c1 | 0.0034 |
| CC(C)(C)c1cccc(S(=O)(=O)c2ccc(CNC(=O)c3ccc4nccn4c3)cc2)c1 | 0.0097 |
| COc1ccc(Cl)cc1S(=O)(=O)c1ccc(CNC(=O)c2ccc3nccn3c2)cc1 | 0.0191 |
| CCCOc1ccc(Cl)cc1S(=O)(=O)c1ccc(CNC(=O)c2ccc3nccn3c2)cc1 | 0.008 |
| O=C(NCc1ccc(S(=O)(=O)c2ccccc2OC(F)(F)F)cc1)c1ccc2nccn2c1 [N-(4-(2-(trifluoromethoxy)phenylsulfonyl)benzyl)imidazo[1,2-a]pyridine-6-carboxamide] | 0.008 |
| N-({4-[(2,4-dichloro-3-methoxybenzene)sulfonyl]phenyl}methyl)-1H-pyrazolo[3,4-b]pyridine-5-carboxamide | 0.02 |

Each molecule was assayed on A2780 cells (assay: In-vitro cell proliferation assay (SRB), A2780 cells). Conditions: A2780 cells, 72 hours, SRB; read-out: A2780 IC50.
Assay type: cell-based
Description: In-Vitro Cell Proliferation Assay
After overnight incubation at 37° C. and 5% CO2, the compound titrations were performed in a separate dilution plate by serially diluting the compounds in DMSO to make a 1000× stock. The compounds were then further diluted to 10× final concentration in culture media, whereupon 20 μL of each dilution was added to the plated cells with controls (e.g. DMSO and blank) to make a final volume of 200 μL. The final DMSO concentration in each well was 0.1%. The plates were then incubated for 72 hours at 37° C. in a 5% CO2 incubator. The number of viable cells was then assessed using sulforhodamine B (SRB) assay. Cells were fixed at 4° C. for 1 hour with the addition of 50 μL 30% trichloroacetic acid (TCA) to make a final concentration of 6% TCA. The plates were washed four times with H2O and allowed to dry for at least 1 hour, whereupon 100 μL of a 4% SRB in 1% acetic acid solution was added to each well and incubated at room temperature for at least 30 minutes. The plates were then washed three times with 1% acetic acid, dried, and treated with 100 μL of 10 mM Tris-Base solution. The plates were then read in a microplate reader at an absorbance of 570 nm. Background was generated on a separate plate with media only.
Method for Determining % Inhibition
First, the signals from the background plate are averaged, then the background was subtracted from the test plates.
wherein X denotes the compound concentration 1, Y denotes the compound concentration 2, XX denotes the % inhibition at compound concentration 1 (X), and YY denotes the % inhibition at compound concentration 2 (Y).

| Molecule | IC50 [µM] |
| --- | --- |
| Cc1c(F)cccc1S(=O)(=O)c1ccc(CNC(=O)c2cc3ccncc3s2)cc1 | 0.0214 |

Same assay, conditions: Homo sapiens, A2780, 72 h, A2780 cells, 72 hours, SRB assay; read-out: A2780 IC50

| Molecule | IC50 [µM] |
| --- | --- |
| O=C(NCc1ccc(S(=O)(=O)N2CCCCC2)cc1)c1cc2cnccc2[nH]1 [N-{[4-(piperidine-1-sulfonyl)phenyl]methyl}-1H-pyrrolo[3,2-c]pyridine-2-carboxamide] | 0.2 |

Same assay, conditions: Homo sapiens, A2780, 72 h, A2780 cells, 72 hours, SRB; read-out: A2780 IC50

| Molecule | IC50 [µM] |
| --- | --- |
| COc1cc(-n2cccn2)ccc1S(=O)(=O)c1ccc(CNC(=O)c2cnc3nccn3c2)cc1 | 0.0087 |
| CC(C)COc1cccc(S(=O)(=O)c2ccc(CNC(=O)c3cc4ccncc4s3)cc2)c1 | 0.0252 |
| COCc1cccc(S(=O)(=O)c2ccc(CNC(=O)c3cnc4nccn4c3)cc2)c1 | 0.0138 |
| O=C(NCc1ccc(S(=O)(=O)c2cccc(-c3ncccn3)c2)cc1)c1cnc2nccn2c1 | 0.013 |
| COc1cc(OC)cc(S(=O)(=O)c2ccc(CNC(=O)c3ccc4nccn4c3)cc2)c1 | 0.0015 |
| N#CC1(c2ccc(S(=O)(=O)c3ccc(CNC(=O)c4cnc5nccn5c4)cc3)cc2)CCCC1 | 0.0047 |
| O=C(NCc1ccc(S(=O)(=O)c2ccc(C(=O)N3CCCC3)cc2)cc1)c1cc2ccncc2s1 | 0.0017 |
| O=C(NCc1ccc(S(=O)(=O)c2ccc(C(=O)N3CCCC3)cc2)cc1)c1cnc2[nH]ncc2c1 | 0.0093 |
| O=C(NCc1ccc(S(=O)(=O)c2ccc(-c3ccccc3)cc2)cc1)c1cnc2nccn2c1 | 0.0076 |
| Cc1ccc(F)cc1S(=O)(=O)c1ccc(CNC(=O)c2cnc3nccn3c2)cc1 | 0.0351 |
| Cc1cccc(S(=O)(=O)c2ccc(CNC(=O)c3cnc4nccn4c3)cc2)c1F [N-({4-[(2-fluoro-3-methylbenzene)sulfonyl]phenyl}methyl)imidazo[1,2-a]pyrimidine-6-carboxamide] | 0.0215 |
| O=C(NCc1ccc(S(=O)(=O)c2cc(F)cc(F)c2)cc1)c1ccc2nccn2c1 [N-({4-[(3,5-difluorobenzene)sulfonyl]phenyl}methyl)imidazo[1,2-a]pyridine-6-carboxamide] | 0.0015 |
| CCOc1cccc(S(=O)(=O)c2ccc(CNC(=O)c3cc4ccncc4s3)cc2)c1 [N-({4-[(3-ethoxybenzene)sulfonyl]phenyl}methyl)thieno[2,3-c]pyridine-2-carboxamide] | 0.0029 |
| O=C(NCc1ccc(S(=O)(=O)c2cccc3cc[nH]c23)cc1)c1cnc2[nH]ncc2c1 [N-{[4-(1H-indole-7-sulfonyl)phenyl]methyl}-1H-pyrazolo[3,4-b]pyridine-5-carboxamide] | 0.0432 |
| Cn1cc2ccc(S(=O)(=O)c3ccc(CNC(=O)c4cnc5[nH]ncc5c4)cc3)cc2n1 [N-{[4-(2-methyl-2H-indazole-6-sulfonyl)phenyl]methyl}-1H-pyrazolo[3,4-b]pyridine-5-carboxamide] | 0.007 |
| O=C(NCc1ccc(S(=O)(=O)c2ccc(C(=O)N3CCCC3)cc2)cc1)c1cc2ccncc2o1 [N-{[4-({4-[(pyrrolidin-1-yl)carbonyl]benzene}sulfonyl)phenyl]methyl}furo[2,3-c]pyridine-2-carboxamide] | 0.0014 |

Same assay, conditions: Homo sapiens, A2780, 72 h, read-out: A2780 IC50 uM

| Molecule | IC50 [µM] |
| --- | --- |
| Cc1c(Cl)cccc1S(=O)(=O)c1ccc(CNC(=O)c2cc3ccncc3s2)cc1 | 0.0071 |

Same assay, conditions: Homo sapiens; A2780 cells, 72 hours, SRB; read-out: A2780 IC50

| Molecule | IC50 [µM] |
| --- | --- |
| O=C(NCc1ccc(S(=O)(=O)c2cccc(C(F)(F)F)c2)cc1)c1cnc2[nH]ncc2c1 | 0.0104 |

From US12336981B2, “Compounds and compositions for the inhibition of NAMPT” (Valo Health, Inc., priority 2010, dated 2025)
